The values that follow come from PMC8659278, “Dianthiamides A–E, Proline-Containing Orbitides from Dianthus chinensis” (Molecules, 2021).

SMILES strings stand for the structures. pIC50: −log10 of the molar value. Where two headings read alike, the source gives them in different places. Peptide text beside a SMILES is read from it.

The series concerns human non-small cell lung cancer A549 cells. The series can be described thus: MTT cytotoxicity assay, A549 cells. It is filed as cell-based. As for the experimental part:
Human non-small cell lung cancer A549 and human stomach adenocarcinoma MKN-28 cells were purchased from the American Type Culture Collection (ATCC; Manassas, VA, USA). […] Docetaxel was used as a positive control with an IC50 value of 0.08 μM on A549 cells.

`CC(=O)O[C@@]12CO[C@@H]1C[C@H](O)[C@@]1(C)C(=O)[C@H](O)C3=C(C)[C@@H](OC(=O)[C@H](O)[C@@H](NC(=O)OC(C)(C)C)c4ccccc4)C[C@@](O)([C@@H](OC(=O)c4ccccc4)[C@H]21)C3(C)C` [docetaxel]: the pIC50 (Homo sapiens, A549, MTT assay, 5 × 10^3 cells/well, 48 h incubation, tested 5–200 µM, absorbance 540 nm, read-out: cytotoxic activity against A549 cell line, IC50) is 7.10.
`CC[C@H](C)[C@@H]1NC(=O)[C@@H]2CCCN2C(=O)[C@@H]2CCCN2C(=O)[C@H](CC(C)C)NC(=O)[C@H](Cc2ccccc2)NC(=O)CNC(=O)[C@H](CC(N)=O)NC1=O` [dianthiamide A, cyclo-(Gly^1-L-Phe^2-L-Leu^3-L-trans-Proa^4-L-cis-Prob^5-L-Ile^6-L-Asn^7)] (cyclo(GFLPPIN)) gave a pIC50 (human, 48 h) of 4.32.

As usually defined, the pIC50 is the IC50 on a negative log10 scale, so that one unit is a factor of ten.
